Results taken from PubChem BioAssay AID1963980 (Molecular Pharmacology Branch, DTP, NCI, 2024).

Test system: 475296-252-R-J1-PDC spheroid viability
Assay: Anticancer human tumor 475296-252-R-J1-PDC patient-derived rectal carcinoma cell line growth inhibition [PI3K]
Details: spheroids with HUVEC and MSC; for IC50: curve of first compound; for viability, T/C: stronger effect = lower value
How it was run: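 Complex 3D spheroids (cancer cells + endothelial HUVEC + mesenchymal stem cells); drug pairs of targeted agent x inavolisib/alpelisib/duvelisib/copanlisib; half-log series from ~Cmax, max 10 microM if Cmax unknown; endpoint viability.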
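Note: spheroids exposed to agents for seven days before readout.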

CNC(=O)c1ccc(N2C(=S)N(c3ccc(C#N)c(C(F)(F)F)c3)C(=O)C2(C)C)cc1F + Cc1nc(NC(=O)N2CCCC2C(N)=O)sc1-c1ccnc(C(C)(C)C(F)(F)F)c1
IC50 (second compound 0.0316 µM): > 10000 nM | IC50 (second compound 0.1 µM): > 10000 nM | IC50 (second compound 0.316 µM): > 10000 nM | IC50 (second compound 1 µM): > 10000 nM | IC50 (second compound 3.16 µM): > 10000 nM | IC50 (second compound 10 µM): > 10000 nM | viability, T/C (second compound 0.0316 µM, first compound 0.0316 µM): 101% | viability, T/C (second compound 0.0316 µM, first compound 0.1 µM): 88.1% | viability, T/C (second compound 0.0316 µM, first compound 0.316 µM): 98.8% | viability, T/C (second compound 0.0316 µM, first compound 1 µM): 87.7% | viability, T/C (second compound 0.0316 µM, first compound 3.16 µM): 95.7% | viability, T/C (second compound 0.0316 µM, first compound 10 µM): 95.2% | viability, T/C (second compound 0.1 µM, first compound 0.0316 µM): 102% | viability, T/C (second compound 0.1 µM, first compound 0.1 µM): 91.8% | viability, T/C (second compound 0.1 µM, first compound 0.316 µM): 99.6% | viability, T/C (second compound 0.1 µM, first compound 1 µM): 86.6% | viability, T/C (second compound 0.1 µM, first compound 3.16 µM): 111% | viability, T/C (second compound 0.1 µM, first compound 10 µM): 114% | viability, T/C (second compound 0.316 µM, first compound 0.0316 µM): 92.2% | viability, T/C (second compound 0.316 µM, first compound 0.1 µM): 101% | viability, T/C (second compound 0.316 µM, first compound 0.316 µM): 86.1% | viability, T/C (second compound 0.316 µM, first compound 1 µM): 104% | viability, T/C (second compound 0.316 µM, first compound 3.16 µM): 101% | viability, T/C (second compound 0.316 µM, first compound 10 µM): 108% | viability, T/C (second compound 1 µM, first compound 0.0316 µM): 90.5% | viability, T/C (second compound 1 µM, first compound 0.1 µM): 104% | viability, T/C (second compound 1 µM, first compound 0.316 µM): 95.6% | viability, T/C (second compound 1 µM, first compound 1 µM): 102% | viability, T/C (second compound 1 µM, first compound 3.16 µM): 89.8% | viability, T/C (second compound 1 µM, first compound 10 µM): 109% | viability, T/C (second compound 3.16 µM, first compound 0.0316 µM): 81.1% | viability, T/C (second compound 3.16 µM, first compound 0.1 µM): 104% | viability, T/C (second compound 3.16 µM, first compound 0.316 µM): 92.3% | viability, T/C (second compound 3.16 µM, first compound 1 µM): 98.1% | viability, T/C (second compound 3.16 µM, first compound 3.16 µM): 108% | viability, T/C (second compound 3.16 µM, first compound 10 µM): 97.5% | viability, T/C (second compound 10 µM, first compound 0.0316 µM): 80.8% | viability, T/C (second compound 10 µM, first compound 0.1 µM): 89.5% | viability, T/C (second compound 10 µM, first compound 0.316 µM): 104% | viability, T/C (second compound 10 µM, first compound 1 µM): 88% | viability, T/C (second compound 10 µM, first compound 3.16 µM): 98.9% | viability, T/C (second compound 10 µM, first compound 10 µM): 90.7%

Cn1cnc2c(F)c(Nc3ccc(Br)cc3Cl)c(C(=O)NOCCO)cc21 + Cc1nc(NC(=O)N2CCCC2C(N)=O)sc1-c1ccnc(C(C)(C)C(F)(F)F)c1
IC50 (second compound 0.0316 µM): > 3000 nM | IC50 (second compound 0.1 µM): > 3000 nM | IC50 (second compound 0.316 µM): 2990 nM | IC50 (second compound 1 µM): 760 nM | IC50 (second compound 3.16 µM): 463 nM | IC50 (second compound 10 µM): 77 nM | viability, T/C (second compound 0.0316 µM, first compound 0.00949 µM): 102% | viability, T/C (second compound 0.0316 µM, first compound 0.03 µM): 81.9% | viability, T/C (second compound 0.0316 µM, first compound 0.0949 µM): 85.7% | viability, T/C (second compound 0.0316 µM, first compound 0.3 µM): 75.7% | viability, T/C (second compound 0.0316 µM, first compound 0.949 µM): 76.6% | viability, T/C (second compound 0.0316 µM, first compound 3 µM): 61.8% | viability, T/C (second compound 0.1 µM, first compound 0.00949 µM): 91.7% | viability, T/C (second compound 0.1 µM, first compound 0.03 µM): 78.7% | viability, T/C (second compound 0.1 µM, first compound 0.0949 µM): 93.2% | viability, T/C (second compound 0.1 µM, first compound 0.3 µM): 73.2% | viability, T/C (second compound 0.1 µM, first compound 0.949 µM): 74.6% | viability, T/C (second compound 0.1 µM, first compound 3 µM): 58% | viability, T/C (second compound 0.316 µM, first compound 0.00949 µM): 89.4% | viability, T/C (second compound 0.316 µM, first compound 0.03 µM): 89.8% | viability, T/C (second compound 0.316 µM, first compound 0.0949 µM): 73.4% | viability, T/C (second compound 0.316 µM, first compound 0.3 µM): 72.9% | viability, T/C (second compound 0.316 µM, first compound 0.949 µM): 64.3% | viability, T/C (second compound 0.316 µM, first compound 3 µM): 48.3% | viability, T/C (second compound 1 µM, first compound 0.00949 µM): 79.9% | viability, T/C (second compound 1 µM, first compound 0.03 µM): 89.3% | viability, T/C (second compound 1 µM, first compound 0.0949 µM): 69% | viability, T/C (second compound 1 µM, first compound 0.3 µM): 63.9% | viability, T/C (second compound 1 µM, first compound 0.949 µM): 47% | viability, T/C (second compound 1 µM, first compound 3 µM): 35.9% | viability, T/C (second compound 3.16 µM, first compound 0.00949 µM): 75.8% | viability, T/C (second compound 3.16 µM, first compound 0.03 µM): 73.6% | viability, T/C (second compound 3.16 µM, first compound 0.0949 µM): 66.2% | viability, T/C (second compound 3.16 µM, first compound 0.3 µM): 59.9% | viability, T/C (second compound 3.16 µM, first compound 0.949 µM): 36.4% | viability, T/C (second compound 3.16 µM, first compound 3 µM): 23.8% | viability, T/C (second compound 10 µM, first compound 0.00949 µM): 83.9% | viability, T/C (second compound 10 µM, first compound 0.03 µM): 67% | viability, T/C (second compound 10 µM, first compound 0.0949 µM): 45.6% | viability, T/C (second compound 10 µM, first compound 0.3 µM): 28.2% | viability, T/C (second compound 10 µM, first compound 0.949 µM): 18.7% | viability, T/C (second compound 10 µM, first compound 3 µM): 5.93%
